Consider 55 compounds from US8871934B2, “Fluorene compound and pharmaceutical use thereof” (Japan Tobacco Inc., priority 2008, dated 2014).

Like-named read-outs stand apart in the source and are kept apart here. Where only a bound is given, the exact number is not on record here.

The test addresses human PDHK2 (hPDHK2) (Homo sapiens (Human), UniProt Q15119). The test is described as follows: Inhibitory action of PDHK activity in vitro (kinase reaction, residual PDH activity measured). The class given is biochemical.
[1] abbreviates: PDHK inhibitory activity, class symbol of IC50.
Where [2] appears, read: read-out: PDHK inhibitory activity IC50.
Setting [3] is: class symbol of IC50, read-out: PDHK inhibitory activity.
Setting [4] is: PDHK inhibitory activity (class symbol).

Turning to `C#Cc1cc(-c2cnn(C)c2)cc2c1-c1ccccc1C2(O)C(F)(F)F` (centres unmarked) [compound 578], the IC50 runs as follows: under setting [1], below 100 nM; under setting [2], 78 nM.
Regarding `Cn1cc(-c2cc(O)cc3c2-c2ccccc2C3(O)C(F)(F)F)cn1` (centres unmarked) [compound 564], the IC50 was 100 to 1000 nM under setting [1] and 105 nM under setting [2].
As for `O=C(c1ccc2c(c1)C(O)(C(F)(F)F)c1ccccc1-2)N1CCCC1` (centres unmarked) [compound 53], the IC50 was 100 to 1000 nM under setting [1] and 567 nM under setting [2].
On to `O=C(O)CCCCOc1ccc2c(c1)C(O)(C(F)(F)F)c1ccccc1-2` (centres unmarked) [compound 295], for which the IC50 is 100 to 1000 nM under setting [1] and 861 nM under setting [2].
With `CN(CCOc1cc(-c2cnn(C)c2)c2c(c1)C(O)(C(F)(F)F)c1ccccc1-2)C(=O)CO` (centres unmarked) [compound 425], the IC50 is below 100 nM under setting [1] and 21 nM under setting [2].
As for `N#Cc1cccc2c1-c1ccccc1C2(O)C(F)(F)F` (centres unmarked) [compound 49], the IC50 was above 1000 nM under setting [1] and 1790 nM under setting [2].
Take `CC(C)(C)Cn1cc(-c2cccc3c2-c2ccccc2C3(O)C(F)(F)F)cn1` (centres unmarked) [compound 524]: the IC50 is, setting by setting: under setting [1], below 100 nM; under setting [2], 87 nM.
In the case of `OCc1cccc2c1-c1ccccc1C2(O)C(F)(F)F` (centres unmarked) [compound 74], the IC50 is, setting by setting: under setting [1], above 1000 nM; under setting [2], 3320 nM.
Take `Cn1cc(-c2cc(OCC(=O)N3CC(O)C3)cc3c2-c2ccccc2C3(O)C(F)(F)F)cn1` (single isomer, unassigned) [compound 475]: the IC50 by setting is: under setting [1], below 100 nM; under setting [2], 20 nM.
`COC(=O)c1cc(Br)c2c(c1)C(O)(C(F)(F)F)c1ccccc1-2` (centres unmarked) [compound 472]: the IC50 under setting [1] fell in the range of 100 to 1000 nM and the IC50 under setting [2] is 184 nM.
As for `NC(=O)CCCOc1cc(Cl)c2c(c1)C(O)(C(F)(F)F)c1ccccc1-2` (centres unmarked) [compound 410], the IC50 is 100 to 1000 nM under setting [1] and 154 nM under setting [2].
For `CCNC(=O)c1ccc2c(c1)C(O)(C(F)(F)F)c1ccccc1-2` (centres unmarked) [compound 315], the IC50 is, setting by setting: under setting [1], above 1000 nM; under setting [2], 6370 nM.
Turning to `CCNC(=O)c1ccc2c(c1)-c1ccccc1C2(O)C(F)(F)F` (centres unmarked) [compound 72], the IC50 runs as follows: under setting [1], above 1000 nM; under setting [2], 4420 nM.
As to `Cn1cc(-c2cc(C(=O)N3CC(OCCO)C3)cc3c2-c2ccccc2C3(O)C(F)(F)F)cn1` (centres unmarked) [compound 375], the IC50 is below 100 nM under setting [1] and 50 nM under setting [2].
As for `O=C(O)CCCCCOc1ccc2c(c1)C(O)(C(F)(F)F)c1ccccc1-2` (centres unmarked) [compound 318], the IC50 is 100 to 1000 nM under setting [1] and 553 nM under setting [2].
On to `CC(C)C(=O)c1cccc2c1-c1ccccc1C2(O)C(F)(F)F` (centres unmarked) [compound 93], for which the IC50 is, setting by setting: under setting [1], above 1000 nM; under setting [2], 29500 nM.
`OC1(C(F)(F)F)c2ccccc2-c2ccc(-c3ccc(F)cc3)cc21` (centres unmarked) [compound 171]: the IC50 by setting is: under setting [1], 100 to 1000 nM; under setting [2], 951 nM.
The corresponding values for `OCCn1cc(-c2cnc3c(c2)C(O)(C(F)(F)F)c2ccccc2-3)cn1` (centres unmarked) [compound 563] are below 100 nM and 63 nM.
Consider `C/C=C/c1ccc2c(c1)C(O)(C(F)(F)F)c1ccccc1-2` (centres unmarked) [compound 248], for which the IC50 by setting is: under setting [1], above 1000 nM; under setting [2], 1020 nM.
As for `Cc1cc(C(=O)N2CCC2)cc2c1-c1ccccc1C2(O)C(F)(F)F` (single isomer, unassigned) [compound 135], the IC50 is above 1000 nM under setting [3] and above 1000 nM under setting [2].
As to `O=C(c1cc(-c2cnn(CCO)c2)c2c(c1)C(O)(C(F)(F)F)c1ccccc1-2)N1CCCC1` (centres unmarked) [compound 476], the IC50 reads like this: under setting [1], below 100 nM; under setting [2], 53 nM.
In the case of `NC(=O)c1ccc(-c2ccc3c(c2)C(O)(C(F)(F)F)c2ccccc2-3)cc1` (centres unmarked) [compound 199], the IC50 under setting [1] lay in the range of 100 to 1000 nM and the IC50 under setting [2] was 182 nM.
The corresponding values for `COc1cc(-c2cnn(CCCC(=O)O)c2)c2c(c1)C(O)(C(F)(F)F)c1ccccc1-2` (single isomer, unassigned) [compound 589] are below 100 nM and 25 nM.
For `C#Cc1cc(CO)c2c(c1)C(O)(C(F)(F)F)c1ccccc1-2` (centres unmarked) [compound 641], the IC50 is, setting by setting: under setting [4], 100 to 1000 nM; under setting [2], 510 nM.
For `Cn1cc(-c2cc(OCC(=O)N3CCC(CO)CC3)cc3c2-c2ccccc2C3(O)C(F)(F)F)cn1` (centres unmarked) [compound 440], the IC50 runs as follows: under setting [1], below 100 nM; under setting [2], 32 nM.
With `CC(=O)N(C)C[C@H](O)COc1cc(-c2cnn(C)c2)c2c(c1)C(O)(C(F)(F)F)c1ccccc1-2` (some centres unmarked) [compound 500], the IC50 was below 100 nM under setting [1] and 31 nM under setting [2].
The corresponding values for `CN(CCOc1ccc2c(c1)C(O)(C(F)(F)F)c1ccccc1-2)C(=O)CO` (centres unmarked) [compound 348] are 100 to 1000 nM and 634 nM.
For `CN(CCO)C(=O)c1cc(-c2cnn(C)c2)c2c(c1)C(O)(C(F)(F)F)c1ccccc1-2` (centres unmarked) [compound 346], the IC50 reads like this: under setting [1], 100 to 1000 nM; under setting [2], 200 nM.
Regarding `NC(=O)Cn1cc(-c2cccc3c2-c2ccccc2C3(O)C(F)(F)F)cn1` (centres unmarked) [compound 493], the IC50 by setting is: under setting [1], below 100 nM; under setting [2], 39 nM.
Consider `COC(=O)c1ccc2c(c1)C(O)(C(F)(F)F)c1ccccc1-2` (centres unmarked) [compound 23], for which the IC50 is 100 to 1000 nM under setting [1] and 571 nM under setting [2].
`Cc1cc(-c2cnn(CCC(=O)O)c2)c2c(c1)C(O)(C(F)(F)F)c1ccccc1-2` (single isomer, unassigned; (+)) [compound 538, (+)-3-[4-(9-hydroxy-2-methyl-9-trifluoromethyl-9H-fluoren-4-yl)-pyrazol-1-yl]-propionic acid]: the IC50 by setting is: under setting [1], below 100 nM; under setting [2], 26 nM.
For `Cn1cc(-c2cc(C(C)(C)O)c3c(c2)C(O)(C(F)(F)F)c2ccccc2-3)cn1` (centres unmarked) [compound 591], the IC50 reads like this: under setting [3], above 1000 nM; under setting [2], above 1000 nM.
For the compound `O=C(c1cc(Cl)c2c(c1)C(O)(C(F)(F)F)c1ccccc1-2)N1CC(OCCO)C1` (centres unmarked) [compound 328], the IC50 under setting [1] is below 100 nM and the IC50 under setting [2] was found to be 78 nM.
`OC1(C(F)(F)F)c2ccccc2-c2c(-c3cnn(C45CC6CC(CC(C6)C4)C5)c3)cccc21` (centres unmarked) [compound 522]: the IC50 is below 100 nM under setting [1] and 61 nM under setting [2].
`OC1(C(F)(F)F)c2ccccc2-c2ccc(N3CCNCC3)cc21` (centres unmarked) [compound 164]: the IC50 was above 1000 nM under setting [1] and 2750 nM under setting [2].
In the case of `OCC(CO)(CO)n1cc(-c2cc(F)cc3c2-c2ccccc2C3(O)C(F)(F)F)cn1` (single isomer, unassigned; (+)) [compound 703, (+)-2-[4-(2-fluoro-9-hydroxy-9-trifluoromethyl-9H-fluoren-4-yl)-pyrazol-1-yl]-2-hydroxymethyl-propane-1,3-diol], the IC50 is below 100 nM under setting [4] and 20 nM under setting [2].
In the case of `OCCCCOc1cc(-c2cncnc2)c2c(c1)C(O)(C(F)(F)F)c1ccccc1-2` (centres unmarked) [compound 428], the IC50 runs as follows: under setting [1], below 100 nM; under setting [2], 25 nM.
`Cc1nnc(-c2cccc3c2-c2ccccc2C3(O)C(F)(F)F)o1` (centres unmarked) [compound 267]: the IC50 runs as follows: under setting [1], above 1000 nM; under setting [2], 1200 nM.
Turning to `COC1CN(C(=O)c2ccc3c(c2)C(O)(C(F)(F)F)c2ccccc2-3)C1` (centres unmarked) [compound 86], the IC50 is 100 to 1000 nM under setting [1] and 378 nM under setting [2].
For the compound `CC(=O)N(C)CCOc1ccc2c(c1)C(O)(C(F)(F)F)c1ccccc1-2` (centres unmarked) [compound 326], the IC50 under setting [1] was 100 to 1000 nM and the IC50 under setting [2] stood at 303 nM.
Regarding `COC(=O)c1ccc2c(c1)-c1ccccc1C2(O)C(F)(F)F` (centres unmarked) [compound 40], the IC50 runs as follows: under setting [1], above 1000 nM; under setting [2], 2470 nM.
Consider `O=S1(=O)CCCN1CCOc1ccc2c(c1)C(O)(C(F)(F)F)c1ccccc1-2` (centres unmarked) [compound 468], for which the IC50 runs as follows: under setting [1], 100 to 1000 nM; under setting [2], 327 nM.
In the case of `CCOC(=O)C1CCN(c2ccc3c(c2)C(O)(C(F)(F)F)c2ccccc2-3)CC1` (centres unmarked) [compound 223], the IC50 under setting [1] is above 1000 nM and the IC50 under setting [2] turned out to be 2330 nM.
With `CNC(=O)CCOc1ccc2c(c1)C(O)(C(F)(F)F)c1ccccc1-2` (centres unmarked) [compound 302], the IC50 runs as follows: under setting [1], above 1000 nM; under setting [2], 1170 nM.
The corresponding values for `OC1(C(F)(F)F)c2ccccc2-c2ccc(N3CCCCC3)cc21` (centres unmarked) [compound 148] are above 1000 nM and 8450 nM.
Consider `Cn1cc(-c2cc(OCC(=O)O)cc3c2-c2ccccc2C3(O)C(F)(F)F)cn1` (centres unmarked) [compound 433], for which the IC50 was 100 to 1000 nM under setting [1] and 388 nM under setting [2].
As to `CCOC(=O)N1CCN(c2ccc3c(c2)C(O)(C(F)(F)F)c2ccccc2-3)CC1` (centres unmarked) [compound 211], the IC50 by setting is: under setting [1], above 1000 nM; under setting [2], 1010 nM.
On to `OC1(C(F)(F)F)c2ccccc2-c2ccc(-c3ccccc3)cc21` (centres unmarked) [compound 97], for which the IC50 is, setting by setting: under setting [1], 100 to 1000 nM; under setting [2], 849 nM.
For `CC(C)(C)C(=O)N1CCN(c2ccc3c(c2)C(O)(C(F)(F)F)c2ccccc2-3)CC1` (centres unmarked) [compound 209], the IC50 is 100 to 1000 nM under setting [1] and 281 nM under setting [2].
In the case of `OC1(C(F)(F)F)c2ccccc2-c2ccc(-c3ccccn3)cc21` (centres unmarked) [compound 112], the IC50 is above 1000 nM under setting [1] and 1230 nM under setting [2].
For the compound `CN(CCOc1cc(-c2cnn(C)c2)c2c(c1)C(O)(C(F)(F)F)c1ccccc1-2)C(=O)C(C)(C)O` (centres unmarked) [compound 501], the IC50 under setting [1] is below 100 nM and the IC50 under setting [2] worked out at 32 nM.
On to `CNC(=O)c1ccc2c(c1)-c1ccccc1C2(O)C(F)(F)F` (centres unmarked) [compound 43], for which the IC50 was above 1000 nM under setting [1] and 3920 nM under setting [2].
With `O=C(c1cc(Cl)c2c(c1)C(O)(C(F)(F)F)c1ccccc1-2)N1CC(O)C1` (centres unmarked) [compound 339], the IC50 under setting [1] was 100 to 1000 nM and the IC50 under setting [2] was determined as 177 nM.
As for `Cc1cc(-c2cnn(CCCCC(=O)O)c2)c2c(c1)C(O)(C(F)(F)F)c1ccccc1-2` (single isomer, unassigned) [compound 606], the IC50 is below 100 nM under setting [4] and 28 nM under setting [2].
Consider `OCCn1cc(-c2cc(-c3cnn(CCO)c3)c3c(c2)C(O)(C(F)(F)F)c2ccccc2-3)cn1` (centres unmarked) [compound 580], for which the IC50 is, setting by setting: under setting [1], below 100 nM; under setting [2], 21 nM.
